Read-outs that look alike come from different tables or passages of the source.
Molecular target: HIV-1 protease (Human immunodeficiency virus type 1 group M subtype B, UniProt P04585)
Test: biochemical
Procedure, shortened: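 Percent inhibition derived from fluorescent cleavage product separated by filtration after streptavidin-bead capture of intact biotin/FITC substrate. Reaction: enzyme (10 μl, 0.1 μM stock) with substrate (20 μl, 0.2 μM stock) and compound, 1 h at room temperature in dark, pH 5.5 acetate buffer with 1.0 M NaCl and 0.05% NP-40.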

[1] = dose 1.100 uM, read-out: HIV-1 Protease % Inhib
[2] = dose 3.300 uM, read-out: HIV-1 Protease % Inhib
[3] = dose 10.000 uM, read-out: HIV-1 Protease % Inhib
[4] = dose 30.000 uM, read-out: HIV-1 Protease % Inhib
[5] = read-out: HIV-1 Protease % Inhib, dose 0.123 uM
[6] = read-out: HIV-1 Protease % Inhib, dose 0.370 uM
[7] = read-out: HIV-1 Protease % Inhib, dose 1.100 uM
[8] = read-out: HIV-1 Protease % Inhib, dose 3.300 uM
[9] = read-out: HIV-1 Protease % Inhib, dose 10.000 uM
[10] = read-out: HIV-1 Protease % Inhib, dose 30.000 uM
[11] = read-out: HIV-1 Protease % Inhib
[12] = dose 0.370 uM, read-out: HIV-1 Protease % Inhib

| SMILES | inhibition at 1.1 µM [1] [%] | inhibition at 3.3 µM [2] [%] | inhibition at 10 µM [3] [%] | inhibition at 30 µM [4] [%] | inhibition at 0.123 µM [5] [%] | inhibition at 0.37 µM [6] [%] | inhibition at 1.1 µM [7] [%] | inhibition at 3.3 µM [8] [%] | inhibition at 10 µM [9] [%] | inhibition at 30 µM [10] [%] | other results |
| --- | --- | --- | --- | --- | --- | --- | --- | --- | --- | --- | --- |
| CC(=O)Nc1nc(C)c(S(=O)(=O)Nc2cccc(C(c3c(O)c4c(oc3=O)CCCCCC4)C3CC3)c2)s1 (stereo not shown) [Example 322, N-[5-[[[3-[Cyclopropyl(5,6,7,8,9,10-hexahydro-4-hydroxy-2-oxo-2H-cycloocta[b]pyran-3-yl)methyl]phenyl]amino]sulfonyl]-4-methyl-2-thiazolyl]-acetamide] | 22.3 | 61.1 | 91.8 | 106 | – | – | – | – | – | – | – |
| O=c1oc2c(c(O)c1C(c1cccc(NS(=O)(=O)c3cccs3)c1)C1CC1)CCCCCC2 (stereo not shown) [Example 323, N-[3-[Cyclopropyl(5,6,7,8,9,10-hexahydro-4-hydroxy-2-oxo-2H-cycloocta[b]pyran-3-yl)methyl]phenyl]-2-thiophenesulfonamide] | – | – | – | – | 62.8 | 91.8 | 100 | 104 | 118 | 112 | – |
| Cc1ccc(S(=O)(=O)Nc2cccc(C(c3c(O)c4c(oc3=O)CCCCCC4)C3CC3)c2)cc1 (stereo not shown) [Example 325, N-[3-[Cyclopropyl(5,6,7,8,9,10-hexahydro-4-hydroxy-2-oxo-2H-cycloocta[b]pyran-3-yl)methyl]phenyl]4-methyl-benzenesulfonamide] | – | – | – | – | 59.8 | 86.6 | 95.6 | 105 | 115 | 115 | – |
| CCCCS(=O)(=O)Nc1cccc(C(c2c(O)c3c(oc2=O)CCCCCC3)C2CC2)c1 (stereo not shown) [Example 326, N-[3-[Cyclopropyl(5,6,7,8,9,10-hexahydro-4-hydroxy-2-oxo-2H-cycloocta[b]pyran-3-yl)methyl]phenyl]-1-butanesulfonamide] | – | – | – | – | 51.6 | 92.6 | 102 | 106 | 114 | 121 | – |
| CC(C)S(=O)(=O)Nc1cccc(C(c2c(O)c3c(oc2=O)CCCCCC3)C2CC2)c1 (stereo not shown) [Example 328, N-[3-[Cyclopropyl(5,6,7,8,9,10-hexahydro-4-hydroxy-2-oxo-2H-cycloocta[b]pyran-3-yl)methyl]phenyl]-2-propanesulfonamide] | – | – | – | – | 11.9 | 46 | 86.6 | 106 | 114 | 111 | – |
| Cc1cccc(C)c1S(=O)(=O)Nc1cccc(C(c2c(O)c3c(oc2=O)CCCCCC3)C2CC2)c1 (stereo not shown) [Example 329, N-[3-[Cyclopropyl(5,6,7,8,9,10-hexahydro-4-hydroxy-2-oxo-2H-cycloocta[b]pyran-3-yl)methyl]phenyl]-2,6-dimethyl-benzenesulfonamide] | – | – | – | – | – | – | – | – | – | – | inhibition at 0.37 µM [11]: 10.2%; inhibition at 1.1 µM [11]: 42.2%; inhibition at 3.3 µM [11]: 75.3%; inhibition at 10 µM [11]: 91.8%; inhibition at 30 µM [11]: 102% |
| Cc1ccccc1S(=O)(=O)Nc1cccc(C(c2c(O)c3c(oc2=O)CCCCCC3)C2CC2)c1 (stereo not shown) [Example 330, N-[3-[Cyclopropyl(5,6,7,8,9,10-hexahydro-4-hydroxy-2-oxo-2H-cycloocta[b]pyran-3-yl)methyl]phenyl]-2-methyl-benzenesulfonamide] | – | – | – | – | 47.2 | 83.8 | 106 | 109 | 115 | 106 | – |
| COc1cccc(OC)c1S(=O)(=O)Nc1cccc(C(c2c(O)c3c(oc2=O)CCCCCC3)C2CC2)c1 (stereo not shown) [Example 334, N-[3-[Cyclopropyl(5,6,7,8,9,10-hexahydro-4-hydroxy-2-oxo-2H-cycloocta[b]pyran-3-yl)methyl]phenyl]-2,6-dimethoxy-benzenesulfonamide] | 42.3 | 69 | 87.6 | 89.5 | – | – | – | – | – | – | inhibition at 0.37 µM [12]: 13.6% |
| COc1ccc(S(=O)(=O)Nc2cccc(C(c3c(O)c4c(oc3=O)CCCCCC4)C3CC3)c2)cc1OC (stereo not shown) [Example 335, N-[3-[Cyclopropyl(5,6,7,8,9,10-hexahydro-4-hydroxy-2-oxo-2H-cycloocta[b]pyran-3-yl)methyl]phenyl]-3,4-dimethoxy-benzenesulfonamide] | – | – | – | – | 48.7 | 82.9 | 90.3 | 96.8 | 96.5 | 106 | – |
| Cc1cccc(S(=O)(=O)Nc2cccc(C(c3c(O)c4c(oc3=O)CCCCCC4)C3CC3)c2)c1 (stereo not shown) [Example 336, N-[3-[Cyclopropyl(5,6,7,8,9,10-hexahydro-4-hydroxy-2-oxo-2H-cycloocta[b]pyran-3-yl)methyl]phenyl]-3-methyl-benzenesulfonamide] | – | – | – | – | 73.5 | 87.3 | 93 | 94.6 | 103 | 108 | – |
| N#Cc1ccccc1S(=O)(=O)Nc1cccc(C(c2c(O)c3c(oc2=O)CCCCCC3)C2CC2)c1 (stereo not shown) [Example 339, 2-Cyano-N-[3-[cyclopropyl(5,6,7,8,9,10-hexahydro-4-hydroxy-2-oxo-2H-cycloocta[b]pyran-3-yl)methyl]phenyl]-benzenesulfonamide] | – | – | – | – | 53.5 | 81.3 | 94.9 | 99.2 | 105 | 99.8 | – |
| CCCc1ccc(S(=O)(=O)Nc2cccc(C(c3c(O)c4c(oc3=O)CCCCCC4)C3CC3)c2)cc1 (stereo not shown) [Example 342, N-[3-[Cyclopropyl(5,6,7,8,9,10-hexahydro-4-hydroxy-2-oxo-2H-cycloocta[b]pyran-3-yl)methyl]phenyl]4-propyl-benzenesulfonamide] | – | – | – | – | 42 | 72.9 | 88.2 | 87.8 | 108 | 105 | – |
| CCCCCCCCCCCCS(=O)(=O)Nc1cccc(C(c2c(O)c3c(oc2=O)CCCCCC3)C2CC2)c1 (stereo not shown) [Example 344, N-[3-[Cyclopropyl(5,6,7,8,9,10-hexahydro-4-hydroxy-2-oxo-2H-cycloocta[b]pyran-3-yl)methyl]phenyl]-1-dodecanesulfonamide] | 11.8 | 32.7 | 63.2 | 81.8 | – | – | – | – | – | – | – |
| CC(C)c1ccc(S(=O)(=O)Nc2cccc(C(c3c(O)c4c(oc3=O)CCCCCC4)C3CC3)c2)cc1 (stereo not shown) [Example 345, N-[3-[Cyclopropyl(5,6,7,8,9,10-hexahydro-4-hydroxy-2-oxo-2H-cycloocta[b]pyran-3-yl)methyl]phenyl]-4-(1-methylethyl)-benzenesulfonamide] | – | – | – | – | 50 | 77 | 90.4 | 101 | 105 | 91.8 | – |
| Nc1ccc(S(=O)(=O)Nc2cccc(C(c3c(O)c4c(oc3=O)CCCCCC4)C3CC3)c2)cc1 (stereo not shown) [Example 348 (First Title Compound), 4-Amino-N-[3-[cyclopropyl(5,6,7,8,9,10-hexahydro-4-hydroxy-2-oxo-2H-cycloocta[b]pyran-3-yl)methyl]phenyl]-benzenesulfonamide] | – | – | – | – | 28.1 | 80.7 | 103 | 108 | 113 | 109 | – |
| C=CS(=O)(=O)Nc1cccc(C(c2c(O)c3c(oc2=O)CCCCC3)C2CC2)c1 (stereo not shown) [Example 363, N-[3-[Cyclopropyl(2,5,6,7,8,9-hexahydro-4-hydroxy-2-oxocyclohepta[b]pyran-3-yl)methyl]phenyl]-ethenesulfonamide] | 21.5 | 58.8 | 84.8 | 107 | – | – | – | – | – | – | – |
| CCS(=O)(=O)Nc1cccc(C(c2c(O)c3c(oc2=O)CCCCC3)C2CC2)c1 (stereo not shown) [Example 365, N-[3-[Cyclopropyl(2,5,6,7,8,9-hexahydro-4-hydroxy-2-oxocyclohepta[b]pyran-3-yl)methyl]phenyl]-ethanesulfonamide] | – | – | – | – | 11.7 | 31.1 | 65.3 | 84.1 | 94.5 | 95.8 | – |
| O=c1oc2c(c(O)c1C(c1cccc(N3CCCS3(=O)=O)c1)C1CC1)CCCCCC2 [Example 365B (First Title Compound), 2H-Cycloocta[b]pyran-2-one, 3-[cyclopropyl[3-(2-isothiazolidinyl)phenyl]methyl]-5,6,7,8,9,10-hexahydro-4-hydroxy-,S,S-dioxide] | – | – | 83.8 | 78.8 | – | – | – | – | – | – | – |
| O=c1oc2c(c(O)c1C(c1cccc(NS(=O)(=O)CCCN3CCOCC3)c1)C1CC1)CCCCCC2 (stereo not shown) [Example 365B (Second Title Compound), N-[3-[Cyclopropyl(5,6,7,8,9,10-hexahydro-4-hydroxy-2-oxo-2H-cycloocta[b]pyran-3-yl)methyl]phenyl]-4-morpholinepropanesulfonamide] | 94 | 87.3 | 92.6 | 89.1 | – | – | – | – | – | – | inhibition at 0.123 µM (dose 0.123 uM, read-out: HIV-1 Protease % Inhib): 33.2%; inhibition at 0.37 µM [12]: 68.2% |
| O=c1oc2c(c(O)c1C(c1cccc(NC(=S)Nc3ccccc3)c1)C1CC1)CCCCCC2 (stereo not shown) [Example 366, Thiourea, N-[3-[cyclopropyl(5,6,7,8,9,10-hexahydro-4-hydroxy-2-oxo-2H-cycloocta[b]pyran-3-yl)methyl]phenyl]-N'-phenyl-] | 40.3 | 72.9 | 92.2 | 107 | – | – | – | – | – | – | – |

Source: patent US5686486A, “4-hydroxy-benzopyran-2-ones and 4-hydroxy-cycloalkyl[b]pyran-2-ones useful to treat retroviral infections” (priority 1995, dated 1997)
